Structures are written as SMILES. A value given as a limit tells only on which side of the number the result lay.

The test system of this assay is HEK293-STF3A cells. In words: STF3A assay (luciferase reporter). The class given is cell-based, Human. The settings on record: Homo sapiens, 24 h, 1 day of treatment. The text has this: HEK293-STF cell line was modified from Human embryonic kidney cell line HEK293 transfected with the STF reporter. HEK293-STF3A cell line was further modified from HEK293-STF cell line to express Wnt3A. This cell line was used to identify compounds that regulate either early or late signaling components of the Wnt pathway. These two cell lines were obtained from David Virshup's laboratory, Duke-NUS. L-Wnt3A (ATCC, #CRL-2647) cell line was used for providing Wnt3A conditioned media. The three cell lines were grown in DMEM with 10% FBS incubated in 37° C. with 5% CO2.
2×10^4 HEK293-STF3A cells in 75 μl culture media were seeded in each well of white 96 well plates (Greiner #655098) and incubated overnight at 37° C. 25 μl serially diluted compound was added to the cells to give final concentration of 50 μM to 1.5 nM. After 1 day of treatment, 100 μl of Steady-Glo Luciferase Assay reagent (#E2520, Promega) was added to each well and incubated for 10 minutes at room temperature. Luminescence was measured using Tecan Safire2 plate reader.
For orientation: In a reporter assay the amount or activity of a reporter protein is the signal.

The term IC50 denotes the midpoint of a concentration-inhibition curve. Read a low IC50 as greater potency. Regarding `Cc1cccc(-c2cc(NC(=O)CCC(=O)N3CCCn4nc(C)cc43)on2)c1` [Compound 11, 4-{2-methyl-5H,6H,7H-pyrazolo[1,5-a]pyrimidin-4-yl}-N-[3-(3-methylphenyl)-1,2-oxazol-5-yl]-4-oxobutanamide], the IC50 was > 10000 nM.

On to `Cc1cc2n(n1)CCCN2C(=O)CCC(=O)Nc1ccc(-c2ccc(F)cc2)cn1` [Compound 90, N-(5-(4-fluorophenyl)pyridin-2-yl)-4-(2-methyl-6,7-dihydropyrazolo[1,5-a]pyrimidin-4(5H)-yl)-4-oxobutanamide], for which the IC50 was < 100 nM.

With `COc1cccc(-c2cc(NC(=O)CCC(=O)N3CCCn4nc(C)cc43)on2)c1` [Compound 10, N-[3-(3-methoxyphenyl)-1,2-oxazol-5-yl]-4-{2-methyl-5H,6H,7H-pyrazolo[1,5-a]pyrimidin-4-yl}-4-oxobutanamide], the IC50 is < 5000 nM.

With `Cc1cc2n(n1)CCCN2C(=O)CCC(=O)Nc1ccc(-c2cccc(N)c2)cc1` [Compound 70, N-(3′-amino-[1,1′-biphenyl]-4-yl)-4-(2-methyl-6,7-dihydropyrazolo[1,5-a]pyrimidin-4(5H)-yl)-4-oxobutanamide], the IC50 is < 100 nM.

As to `Cc1cc2n(n1)CCCN2C(=O)CCC(=O)Nc1ccc(-c2cccc(Cl)c2)nn1` [Compound 97, N-(6-(3-chlorophenyl)pyridazin-3-yl)-4-(2-methyl-6,7-dihydropyrazolo[1,5-a]pyrimidin-4(5H)-yl)-4-oxobutanamide], the IC50 was < 100 nM.

Consider `Cc1cc2n(n1)CCCN2C(=O)CCC(=O)Nc1ccc(-c2ccccc2)nc1` [Compound 43, 4-(2-methyl-6,7-dihydropyrazolo[1,5-a]pyrimidin-4(5H)-yl)-4-oxo-N-(6-phenylpyridin-3-yl)butanamide], for which the IC50 is < 100 nM.

For `Cc1cc2n(n1)CCCN2C(=O)CCC(=O)Nc1cc(-c2cccc(F)c2)no1` [Compound 8, N-(3-(3-fluorophenyl)isoxazol-5-yl)-4-(2-methyl-6,7-dihydropyrazolo[1,5-a]pyrimidin-4(5H)-yl)-4-oxobutanamide], the IC50 was < 100 nM.

Consider `Cc1cc2n(n1)CCCN2C(=O)CCC(=O)Nc1cnc(-c2cncc(F)c2)cn1` [Compound 122, N-(5-(5-fluoropyridin-3-yl)pyrazin-2-yl)-4-(2-methyl-6,7-dihydropyrazolo[1,5-a]pyrimidin-4(5H)-yl)-4-oxobutanamide], for which the IC50 was < 100 nM.

As to `Cc1cc2n(n1)CCCN2C(=O)CCC(=O)Nc1ccc(-c2cccc(Cl)c2)nc1` [Compound 83, N-(6-(3-chlorophenyl)pyridin-3-yl)-4-(2-methyl-6,7-dihydropyrazolo[1,5-a]pyrimidin-4(5H)-yl)-4-oxobutanamide], the IC50 is < 100 nM.

As to `Cc1cc2n(n1)CCCN2C(=O)CCC(=O)Nc1ccc(-c2ccccn2)cc1` [Compound 34, 4-(2-methyl-6,7-dihydropyrazolo[1,5-a]pyrimidin-4(5H)-yl)-4-oxo-N-(4-(pyridin-2-yl)phenyl)butanamide], the IC50 is < 100 nM.

For `Cc1cc2n(n1)CCCN2CCCCNc1cc(-c2cccc(Cl)c2)no1` [Compound 131, 3-(3-chlorophenyl)-N-(4-(2-methyl-6,7-dihydropyrazolo[1,5-a]pyrimidin-4(5H)-yl)butyl)isoxazol-5-amine], the half-maximal inhibitory concentration (IC50) was > 10000 nM.

In the case of `Cc1cc2n(n1)CCCN2C(=O)CCC(=O)Nc1cc(-c2cccc(Cl)c2)no1` [Compound 3, N-(3-(3-chlorophenyl)isoxazol-5-yl)-4-(2-methyl-6,7-dihydropyrazolo[1,5-a]pyrimidin-4(5H)-yl)-4-oxobutanamide], the IC50 was < 100 nM.

On to `Cc1cc2n(n1)CCCN2C(=O)CCC(=O)Nc1ccc(-c2cccnc2)cc1` [Compound 35, 4-(2-methyl-6,7-dihydropyrazolo[1,5-a]pyrimidin-4(5H)-yl)-4-oxo-N-(4-(pyridin-3-yl)phenyl)butanamide], for which the IC50 is < 100 nM.

For the compound `Cc1cc2n(n1)CC(C)CN2C(=O)CCC(=O)Nc1ccc(-c2cncc(F)c2)cn1` (stereo not shown) [Compound 163, 4-(2,6-dimethyl-6,7-dihydropyrazolo[1,5-a]pyrimidin-4(5H)-yl)-N-(5′-fluoro-[3,3′-bipyridin]-6-yl)-4-oxobutanamide], the IC50 was < 100 nM.

For the compound `Cc1cc2n(n1)CCCN2C(=O)CCC(=O)Nc1ccc(-c2ccnn2C)cc1` [Compound 29, N-(4-(1-methyl-1H-pyrazol-5-yl)phenyl)-4-(2-methyl-6,7-dihydropyrazolo[1,5-a]pyrimidin-4(5H)-yl)-4-oxobutanamide], the IC50 is < 1000 nM.

On to `Cc1cc2n(n1)CCCN2C(=O)CCC(=O)Nc1ccc(-c2ccc(Cl)cc2)nn1` [Compound 100, N-[6-(4-chlorophenyl)pyridazin-3-yl]-4-{2-methyl-5H,6H,7H-pyrazolo[1,5-a]pyrimidin-4-yl}-4-oxobutanamide], for which the IC50 was < 100 nM.

`COC(=O)c1cc2n(n1)CCCN2C(=O)CCC(=O)Nc1cc(-c2cccc(Cl)c2)no1` [Compound 136, methyl 4-(4-(3-(3-chlorophenyl)isoxazol-5-ylamino)-4-oxobutanoyl)-4,5,6,7-tetrahydropyrazolo[1,5-a]pyrimidine-2-carboxylate]: the IC50 was > 10000 nM.

Take `Cc1cc2n(n1)CCCN2C(=O)CCC(=O)Nc1ccc(-c2ccccc2N)cc1` [Compound 69, N-(2′-amino-[1,1′-biphenyl]-4-yl)-4-(2-methyl-6,7-dihydropyrazolo[1,5-a]pyrimidin-4(5H)-yl)-4-oxobutanamide]: the IC50 is < 1000 nM.

On to `Cc1cc2n(n1)CC(C)CN2C(=O)CCC(=O)Nc1ccc(-c2cncc(F)c2)nc1` (stereo not shown) [Compound 162, 4-(2,6-dimethyl-6,7-dihydropyrazolo[1,5-a]pyrimidin-4(5H)-yl)-N-(5′-fluoro-[2,3′-bipyridin]-5-yl)-4-oxobutanamide], for which the IC50 is < 100 nM.

On to `Cc1cc2n(n1)CCCN2C(=O)CCC(=O)Nc1cc(-c2cncc(Cl)c2)no1` [Compound 18, N-[3-(5-chloropyridin-3-yl)-1,2-oxazol-5-yl]-4-{2-methyl-5H,6H,7H-pyrazolo[1,5-a]pyrimidin-4-yl}-4-oxobutanamide], for which the IC50 is < 5000 nM.

`Cc1cc2n(n1)CCCN2C(=O)CCC(=O)Nc1ccc(-c2cccc(F)c2)cc1` [Compound 65, N-(3′-fluoro-[1,1′-biphenyl]-4-yl)-4-(2-methyl-6,7-dihydropyrazolo[1,5-a]pyrimidin-4(5H)-yl)-4-oxobutanamide]: the IC50 was < 100 nM.

Consider `Cc1cc2n(n1)CCCN2C(=O)CCC(=O)Nc1ccc(C2CCCCC2)cc1` [Compound 75, N-(4-cyclohexylphenyl)-4-(2-methyl-6,7-dihydropyrazolo[1,5-a]pyrimidin-4(5H)-yl)-4-oxobutanamide], for which the IC50 is > 10000 nM.

`Cc1cc2n(n1)CCCN2C(=O)CCC(=O)Nc1ccc(-c2ncccn2)cc1` [Compound 40, 4-{2-methyl-5H,6H,7H-pyrazolo[1,5-a]pyrimidin-4-yl}-4-oxo-N-[4-(pyrimidin-2-yl)phenyl]butanamide]: the IC50 is < 1000 nM.

As for `Cc1cc2n(n1)CCCN2C(=O)CCC(=O)Nc1ccc(-c2ccncn2)cc1` [Compound 38, 4-(2-methyl-6,7-dihydropyrazolo[1,5-a]pyrimidin-4(5H)-yl)-4-oxo-N-(4-(pyrimidin-4-yl)phenyl)butanamide], the IC50 is > 10000 nM.

Consider `Cc1cc2n(n1)CCCN2C(=O)CCC(=O)Nc1ccc(-c2cccnc2)cn1` [Compound 49, 4-{2-methyl-5H,6H,7H-pyrazolo[1,5-a]pyrimidin-4-yl}-4-oxo-N-[5-(pyridin-3-yl)pyridin-2-yl]butanamide], for which the IC50 was < 100 nM.

For `CC(=O)N1CCN(c2ccc(NC(=O)CCC(=O)N3CCCn4nc(C)cc43)cc2)CC1` [Compound 78, N-(4-(4-acetylpiperazin-1-yl)phenyl)-4-(2-methyl-6,7-dihydropyrazolo[1,5-a]pyrimidin-4(5H)-yl)-4-oxobutanamide], the IC50 was > 10000 nM.

On to `Cc1cc2n(n1)CCCN2C(=O)CCC(=O)Nc1ccc(-c2ccc(C(F)(F)F)cc2)cc1` [Compound 14, 4-(2-methyl-6,7-dihydropyrazolo[1,5-a]pyrimidin-4(5H)-yl)-4-oxo-N-(4′-(trifluoromethyl)-[1,1′-biphenyl]-4-yl)butanamide], for which the IC50 was > 10000 nM.

Regarding `Cc1cc2n(n1)CCCN2C(=O)CCC(=O)Nc1cnc(-c2cccc(F)c2)cn1` [Compound 123, N-(5-(3-fluorophenyl)pyrazin-2-yl)-4-(2-methyl-6,7-dihydropyrazolo[1,5-a]pyrimidin-4(5H)-yl)-4-oxobutanamide], the IC50 was < 100 nM.

`Cc1cc2n(n1)CCCN2C(=O)CCC(=O)Nc1ccc(-c2ccc(F)cn2)cn1` [Compound 94, N-(5-fluoro-2,3′-bipyridin-6′-yl)-4-(2-methyl-6,7-dihydropyrazolo[1,5-a]pyrimidin-4(5H)-yl)-4-oxobutanamide]: the IC50 is < 100 nM.

With `Cc1cc2n(n1)CCCN2C(=O)CCC(=O)Nc1ccc(-c2cccc(C(=O)N(C)C)c2)cc1` [Compound 68, N,N-dimethyl-4′-(4-(2-methyl-6,7-dihydropyrazolo[1,5-a]pyrimidin-4(5H)-yl)-4-oxobutanamido)-[1,1′-biphenyl]-3-carboxamide], the IC50 was > 10000 nM.

Regarding `CCc1cc2n(n1)CCCN2C(=O)CCC(=O)Nc1cc(-c2cccc(Cl)c2)no1` [Compound 137, N-(3-(3-chlorophenyl)isoxazol-5-yl)-4-(2-ethyl-6,7-dihydropyrazolo[1,5-a]pyrimidin-4(5H)-yl)-4-oxobutanamide], the IC50 is < 100 nM.

For the origin of these results see patent publication US10189842B2 (Agency for Science, Technology and Research, priority 2013, dated 2019).
